# Experimental data from PMC5429603, “Discovery and characterization of verinurad, a potent and specific inhibitor of URAT1 for the treatment of hyperuricemia and gout” (Scientific Reports, 2017).
# Numbering of substitutions follows the chain as printed.
# Assays:
# human URAT1 h-F241Y = molecular target: T1, human URAT1 h-F241Y (Homo sapiens, UniProt Q96S37, F241Y); assay: URAT1 activity assay, h-F241Y; format: cell-based
# T1 construct: expressed in transfected cells; host or cells: HEK-293T
# T1 sequence (Q96S37 1-553 F241Y): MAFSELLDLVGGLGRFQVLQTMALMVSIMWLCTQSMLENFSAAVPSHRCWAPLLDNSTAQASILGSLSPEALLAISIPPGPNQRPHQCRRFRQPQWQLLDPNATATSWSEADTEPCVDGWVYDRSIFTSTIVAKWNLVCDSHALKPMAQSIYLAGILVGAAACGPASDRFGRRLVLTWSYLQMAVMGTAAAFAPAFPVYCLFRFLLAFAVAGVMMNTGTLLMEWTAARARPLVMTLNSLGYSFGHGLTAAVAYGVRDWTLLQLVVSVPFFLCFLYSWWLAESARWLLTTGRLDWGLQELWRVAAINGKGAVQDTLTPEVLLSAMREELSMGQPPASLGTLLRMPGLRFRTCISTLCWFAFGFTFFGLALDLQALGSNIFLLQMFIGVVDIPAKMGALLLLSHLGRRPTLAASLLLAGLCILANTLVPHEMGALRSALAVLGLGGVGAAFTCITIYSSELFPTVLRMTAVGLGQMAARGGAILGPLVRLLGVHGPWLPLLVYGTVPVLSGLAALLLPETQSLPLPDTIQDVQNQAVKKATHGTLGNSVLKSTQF
# Excerpt: Human URAT1 (GenBank BC053348.1, Homo sapiens SLC22A12), rat URAT1 (NCBI NM_001034943.1, Rattus norvegicus Slc22a12) and human OAT4 (NCBI NM_018484.2, Homo sapiens SLC22A11) genes were purchased from Origene Technologies, Inc. and subcloned into pCMV6/neo using NotI. Where indicated, controls transfections used pCMV6/neo. Mutants were produced by site-directed mutagenesis using the QuikChange Lightning Multi Site-Directed Mutagenesis Kit (Agilent Technologies). […] Mutagenic primer sequences are provided in ref. [15] and mutagenic primer sequences for previously unreported mutants shown in Supplementary Table 1. All constructs used in this study were untagged. Human OAT1 was purchased from Fisher Scientific (catalog # MHS1010–7508183 in pSPORT6, NCBI NM_153276.2, Homo sapiens SLC22A6).
# HEK-293T cells were maintained in DMEM/high glucose/L-glutamine/HEPES supplemented with 1 mM sodium pyruvate (Life Technologies) and 10% FBS (PAA Laboratories) at 37 °C in 5% CO2. To express URAT1, OAT4 or OAT1, plasmids were reverse transfected into HEK-293T cells. DNA (10 µg) was mixed with 30 µl of DreamFect Gold (Boca Scientific) in 2 ml OptiMem (Life Technologies). After 20 minutes, 18 ml of media containing 2 × 10^7 cells in suspension was added and mixed, and 200 µl per well were plated onto white clear-bottomed poly-D-lysine coated 96-well plates (BD Biosciences). The cells were assayed the following day.
# URAT1 and OAT4 activity assays were performed in assay buffer consisting of 25 mM MES pH 5.5 (from a 1 M MES solution [Sigma] adjusted to pH 5.5 with sodium hydroxide), 125 mM sodium gluconate, 4.8 mM potassium gluconate, 1.2 mM monobasic potassium phosphate, 1.2 mM magnesium sulfate, 1.3 mM calcium gluconate and 5.6 mM glucose. URAT1 inhibitors were serially diluted into assay buffer and added to the cells for 5 minutes prior to addition of substrate. URAT1-expressing cells were incubated with 100 µM ^14C-uric acid for 10 minutes and OAT4-expressing cells were incubated with 20 µM carboxyfluorescein (Life Technologies, Inc.) for 5 minutes. Cells were then washed three times in 25 mM MES pH 5.5/125 mM sodium gluconate, and solubilized in Ultima Gold (Perkin Elmer) prior to liquid scintillation counting. Each treatment was measured in triplicate.
# human URAT1 = molecular target: T2, human URAT1 (Homo sapiens, UniProt Q96S37); assay: URAT1 binding assay with 3H-verinurad, human URAT1 membranes
# T2 sequence (Q96S37 1-553): T1 sequence (Q96S37 1-553 F241Y) with Y241F
# Method: Membranes were prepared from cells transfected on the previous day with URAT1 expression constructs. Cells (5–10 × 10^8) were harvested in 1 ml ice-cold binding buffer (25 mM HEPES pH 7.3, 125 mM sodium gluconate) containing complete, EDTA-free protease inhibitor cocktail (Sigma). Cells were lysed with 100 strokes in a 2 ml dounce homogenizer using a tight-fitting “B” stem. Lysates were transferred to 1.5 mL Eppendorf tubes and centrifuged at 250 rcf for 5 minutes at 2 °C, and supernatants were transferred to fresh tubes and centrifuged again at 18,000 rcf for 20 minutes at 2 °C. The pellets (membrane fractions) were resuspended in 1 ml of ice-cold binding buffer containing protease inhibitors and frozen at −80 °C. Protein was measured using the Bio-Rad protein assay dye reagent concentrate.
# Samples were then rapidly filtered through 25 mm glass fiber/1.2 µM PES 96-well filter plates (Corning FiltrEX 3510), and washed once with 200 µl ice-cold binding buffer. The plates were then subjected to scintillation counting. All samples were assayed in triplicate.
# GraphPad Prism software was used for non-linear regression and statistical analyses. […] For kinetic measurements (K m and B max values), the “one site – specific binding” equation was used, after subtracting transport or binding measurements from control transfected cells. Statistical significance was assessed using Student’s unpaired t-tests.
compound,measurement,setting,value
"CC(C)(Sc1ccncc1-c1ccc(C#N)c2ccccc12)C(=O)O [Verinurad, 2-((3-(4-cyanonaphthalen-1-yl)pyrindin-4-yl)thio)-2-methylpropanoic acid]",fold reduced affinity compared to human URAT1,human URAT1 h-F241Y; h-F241Y,5 fold
same,IC50,human URAT1 h-F241Y; h-F241Y binding site point mutant,120 nM
same,IC50,human URAT1,7.8 nM
same,Ki,human URAT1,6.9 nM
same,mode of inhibition of 3H-verinurad binding,human URAT1; human URAT1 membranes,competitive inhibition
